Test results: publication PMC9279437, “Cytopathic SARS-CoV-2 screening on VERO-E6 cells in a large-scale repurposing effort” (Scientific Data, 2022)
Structures can show the parent of a compound that is named as a salt. Where two headings read alike, the source gives them in different places. Peptide text beside a SMILES is read from it. * marks the point of attachment. Cbz = O=C(OCc1ccccc1)*

Experiments:
in vitro = conditions: Chlorocebus sabaeus (African green monkey)
SARS-CoV-2 [1] = tested on: SARS-CoV-2
[2] = Cytotoxicity assessment in dose response without virus infection; conditions: Chlorocebus sabaeus (African green monkey)
SARS-CoV-2 [3] = assay: microbe, parasite or virus in culture
SARS-CoV-2 [4] = assay: Primary anti-cytopathicity assay development: control compound profiling, 384-well plates; type: cell-based, Severe acute respiratory syndrome coronavirus 2; conditions: mean
Vero E6 EGFP cells [5] = tested on: Vero E6 EGFP cells
Vero E6 EGFP cells [6] = assay: Cytotoxicity assessment in dose response without virus infection; conditions: cytotoxicity in the absence of virus, Vero E6 EGFP, 33 µM to 10 nM
SARS CoV-2 = tested on: SARS CoV-2; design: method as in PMID 32473310; conditions: VERO-E6 cells; cited from earlier work
coronavirus OCR43 = tested on: coronavirus OCR43; design: method as in PMID 33324406; conditions: LLC-MK2 cells; cited from earlier work
[7] = ratio of cytotoxic to anti-cytopathic effects
[8] = Severe acute respiratory syndrome coronavirus 2, Vero C1008, 96 h
[9] = Severe acute respiratory syndrome coronavirus 2, read-out: Average IC50, d3 of incubation, 4000 cells seeded
[10] = Severe acute respiratory syndrome coronavirus 2, read-out: Average IC50, d3 of incubation, 8000 cells seeded
[11] = Severe acute respiratory syndrome coronavirus 2, read-out: Average IC50, d4 of incubation, 4000 cells seeded
[12] = Severe acute respiratory syndrome coronavirus 2, read-out: Average IC50, d4 of incubation, 8000 cells seeded
[13] = Severe acute respiratory syndrome coronavirus 2, read-out: Average IC50, d5 of incubation, 8000 cells seeded
[14] = Severe acute respiratory syndrome coronavirus 2, read-out: Average IC50, d5 of incubation, 4000 cells seeded

Cc1[nH]c(/C=C2\C(=O)Nc3ccc(S(=O)(=O)Cc4c(Cl)cccc4Cl)cc32)c(C)c1C(=O)N1CCC[C@@H]1CN1CCCC1 [PHA-665752]
CC50 (in vitro): > 33 µM

CNCc1ccc(-c2cc(-c3nc(-c4ccc(S(=O)(=O)C(C)C)cc4)cnc3N)on2)cc1 [VE-822]
IC50 (SARS-CoV-2 [1]): < 20 µM | SI (CC50/IC50) (SARS-CoV-2 [1]; [7]): 3.75 | CC50 at 4 days (in vitro): 10 µM

COc1ccc2cc1Oc1ccc(cc1)C[C@H]1c3cc(c(OC)cc3CCN1C)Oc1c(OC)c(OC)cc3c1[C@H](C2)N(C)CC3 [Tetrandrine (Fanchinine), Tetrandrine]
CC50 at 4 days [2]: > 33 µM

CN1CCN(C2CCN(C(=O)Nc3cc(Oc4ccc(NC(=O)C5(C(=O)Nc6ccc(F)cc6)CC5)c(F)c4)ccn3)CC2)CC1 [Golvatinib (E7050), Golvatinib]
SI (CC50/IC50) (SARS-CoV-2 [1]; [7]): 5.60 | CC50 at 4 days (in vitro): > 33 µM | IC50 (SARS-CoV-2 [3]; [8]): 5.89 µM

COc1cc2c(N3CCN(C(=O)Nc4ccc(OC(C)C)cc4)CC3)ncnc2cc1OCCCN1CCCCC1 [Tandutinib (MLN518), Tandutinib]
IC50 (SARS-CoV-2 [1]): < 20 µM | CC50 (in vitro): > 33 µM

COc1cc(NCc2ccc3nc(N)nc(N)c3c2C)cc(OC)c1OC [Trimetrexate]
IC50 (SARS-CoV-2 [1]): < 20 µM | CC50 at 4 days [2]: 1.99 µM

Cc1cccc(C)c1OCC(=O)N[C@@H](Cc1ccccc1)[C@@H](O)C[C@H](Cc1ccccc1)NC(=O)[C@H](C(C)C)N1CCCNC1=O [Lopinavir, lopinavir]
IC50 (SARS-CoV-2 [4]; [9]): 9.21 µM | IC50 (SARS-CoV-2 [4]; [10]): 7.58 µM | IC50 (SARS-CoV-2 [4]; [11]): 11.3 µM | IC50 (SARS-CoV-2 [4]; [12]): 12 µM | IC50 (SARS-CoV-2 [4]; [13]): 21.1 µM

Nc1c[nH]c(=O)c2cc(-c3ccccc3)sc12 [Thieno-pyridone]
IC50 (SARS-CoV-2 [1]): 5.26 µM | SI (CC50/IC50) (SARS-CoV-2 [1]; [7]): 6.27 | CC50 (Vero E6 EGFP cells [5]): > 33 µM

CCCCCCCCCCCCCCOc1ccc(C(=O)O)o1 [KD-023]
IC50 (SARS-CoV-2 [1]): 4.04 µM | SI (CC50/IC50) (SARS-CoV-2 [1]; [7]): 8.17

CCN(CCO)CCCC(C)Nc1ccnc2cc(Cl)ccc12 (centres unmarked) [Hydroxychloroquine, hydroxychloroquine]
IC50 (SARS-CoV-2 [4]; [9]): 16.4 µM | IC50 (SARS-CoV-2 [4]; [10]): 15.8 µM | IC50 (SARS-CoV-2 [4]; [11]): 21 µM | IC50 (SARS-CoV-2 [4]; [12]): 25.8 µM | IC50 (SARS-CoV-2 [4]; [13]): 43.6 µM

O=C1OC2(c3ccc(O)cc3Oc3cc(O)ccc32)c2ccccc21 [Fluorescein]
SI (CC50/IC50) (SARS-CoV-2 [1]; [7]): 49.25 | IC50 (SARS-CoV-2 [3]; [8]): 0.67 µM | CC50 at 4 days [2]: > 33 µM

Nc1nc2c(ncn2[C@@H]2O[C@H](CO)[C@@H](O)[C@H]2O)c(=S)[nH]1 [Thioguanosine]
CC50 (in vitro): > 33 µM

Cc1cc(O[C@@H](CCC(F)(F)F)c2ccc(C(=O)NCCC(=O)O)cc2)cc(C)c1-c1ccc(C(C)(C)C)cc1 [Adomeglivant]
CC50 at 4 days (in vitro): > 33 µM

CC(C)C[C@@H](C=O)NC(=O)[C@H](CC(C)C)NC(=O)[C@H](CC(C)C)NC(=O)OCc1ccccc1 [MG-132] (Cbz-Leu-Leu-Leu-aldehyde)
CC50 at 4 days [2]: 2.9 µM

Cc1cccc(Nc2nc(-c3ccncc3)cs2)c1 [STF-62247]
CC50 (Vero E6 EGFP cells [6]): 31.5 µM

O=C(c1c2ccccc2cc2ccccc12)N1CCC(N2CCC[C@@H](C(=O)N3CCOCC3)C2)CC1 [CP-640186 (hydro-chloride)]
CC50 (Vero E6 EGFP cells [5]): 10.9 µM

CCC(CC)COC(=O)[C@H](C)N[P@](=O)(OC[C@H]1O[C@@](C#N)(c2ccc3c(N)ncnn23)[C@H](O)[C@@H]1O)Oc1ccccc1 [Remdesivir, remdesivir]
IC50 (SARS-CoV-2 [4]; [9]): 2.73 µM | IC50 (SARS-CoV-2 [4]; [10]): 1.56 µM | IC50 (SARS-CoV-2 [4]; [11]): 3.74 µM | IC50 (SARS-CoV-2 [4]; [12]): 2.27 µM | IC50 (SARS-CoV-2 [4]; [14]): 4.67 µM | IC50 (SARS-CoV-2 [4]; [13]): 2.99 µM | IC50 (SARS-CoV-2 [3]; Severe acute respiratory syndrome coronavirus 2, Vero C1008, read-out: IC50 (%Confluence versus compound concentration), positive control, curve fitting example Fig. 4): 1.7 µM

O=C(Nc1ccc([N+](=O)[O-])cc1Cl)c1cc(Cl)ccc1O [Niclosamide]
SI (CC50/IC50) (SARS-CoV-2 [1]): 8.05 | IC50 (SARS-CoV-2 [3]; [8]): 4.1 µM | CC50 at 4 days [2]: > 33 µM

COc1cc(C[C@H]2c3cc(OC)c(OC)cc3CCN2C)c(Oc2cc3c(cc2OC)-c2c(OC)c(OC)cc4c2[C@H](C3)N(C)CC4)cc1OC [Thaliblastine]
IC50 (SARS-CoV-2 [1]): 3.87 µM | SI (CC50/IC50) (SARS-CoV-2 [1]; [7]): 8.53

C[C@@H]1C[C@@H]([C@H](O)CC2CC(=O)NC(=O)C2)C(=O)[C@@H](C)C1 [Cycloheximide]
CC50 (in vitro): 10.2 µM

Nc1ncnc2c1ncn2[C@@H]1CC[C@@H](O)[C@H]1O [DHCaA]
CC50 (Vero E6 EGFP cells [5]): 15.7 µM

O=C(c1ccc(OCCN2CCCCC2)cc1)c1c(-c2ccc(O)cc2)sc2cc(O)ccc12 [Raloxifene hydrochloride]
IC50 (SARS-CoV-2 [1]): 15.4 µM | SI (CC50/IC50) (SARS-CoV-2 [1]): 2.14 | IC50 (SARS-CoV-2 [3]; [8]): < 20 µM | activity in phenotypic assay of SARS CoV-2 viral infection (SARS CoV-2): active | activity against coronavirus OCR43 (coronavirus OCR43): active | CC50 at 4 days [2]: > 33 µM

CC(C)(C)NCc1ccc(Nc2ccnc3cc(Cl)ccc23)cc1O [N-tert-Butylisoquine]
CC50 at 4 days (in vitro): 12.4 µM

COc1ccc2c(c1)[C@]1(C[C@H]1c1ccc3c(/C=C/c4ccc(CN5C[C@@H](C)O[C@@H](C)C5)cc4)n[nH]c3c1)C(=O)N2 [CFI-400945]
CC50 at 4 days (in vitro): > 33 µM

Cc1ccc(NC(=O)c2ccc(CN3CCN(C)CC3)cc2)cc1Nc1nc(-c2cccnc2)cs1 [Masitinib (AB1010), Masitinib]
IC50 (SARS-CoV-2 [3]; [8]): < 20 µM | CC50 at 4 days [2]: > 33 µM

CC(=O)[C@]1(N)Cc2c(O)c3c(c(O)c2[C@@H](O[C@H]2C[C@H](O)[C@H](O)CO2)C1)C(=O)c1ccccc1C3=O [Amrubicin]
SI (CC50/IC50) (SARS-CoV-2 [1]; [7]): 100.00 | CC50 (in vitro): > 33 µM | IC50 (SARS-CoV-2 [3]; [8]): 0.33 µM

CCN(CC)c1ccc2cc(-c3nc4ccccc4[nH]3)c(=O)oc2c1 [Coumarin 7]
IC50 (SARS-CoV-2 [1]): 0.36 µM | SI (CC50/IC50) (SARS-CoV-2 [1]): 91.67

3'-fluoro-benzyl-spiperone
CC50 (Vero E6 EGFP cells [6]): 27.4 µM

CCN(CC)CCCC(C)Nc1ccnc2cc(Cl)ccc12 (centres unmarked) [Chloroquine, chloroquine]
IC50 (SARS-CoV-2 [4]; [9]): 11.3 µM | IC50 (SARS-CoV-2 [4]; [10]): 8.69 µM | IC50 (SARS-CoV-2 [4]; [11]): 13.4 µM | IC50 (SARS-CoV-2 [4]; [12]): 13.5 µM | IC50 (SARS-CoV-2 [4]; [14]): 13.5 µM | IC50 (SARS-CoV-2 [4]; [13]): 17.1 µM

CCN(CC)CCOc1ccc(C(=C(Cl)c2ccccc2)c2ccccc2)cc1 [Clomiphene citrate]
CC50 at 4 days [2]: > 33 µM

Cc1cc(O)c2c(=O)c3c(O)cc(O)c4c5c(O)cc(O)c6c(=O)c7c(O)cc(C)c8c1c2c(c34)c(c78)c65 [Hypericin]
SI (CC50/IC50) (SARS-CoV-2 [1]; [7]): 5.24 | CC50 (in vitro): 1.31 µM | IC50 (SARS-CoV-2 [3]; [8]): 0.25 µM

CC(C)(O)CNc1ncc(-c2ccnc(Nc3ccnc(Cl)c3)n2)c(CC2CC2)n1 [VPS34-IN-1]
CC50 (in vitro): 26.8 µM

O=C(c1c2ccccc2cc2ccccc12)N1CCC(N2CCC[C@@H](C(=O)N3CCOCC3)C2)CC1 [CP-640186]
CC50 (Vero E6 EGFP cells [6]): 10.2 µM

CCCCN(CCCC)CCC(O)c1cc2c(Cl)cc(Cl)cc2c2cc(C(F)(F)F)ccc12 (centres unmarked) [Halofantrine hydrochloride]
CC50 at 4 days [2]: > 33 µM

CC(C)COCC(CN(Cc1ccccc1)c1ccccc1)N1CCCC1 (centres unmarked) [Bepridil]
CC50 at 4 days [2]: 23.4 µM

OCCNC1CCCc2c1[nH]c1ccc(-c3ccccc3)cc21 (centres unmarked) [casin]
CC50 (Vero E6 EGFP cells [5]): > 33 µM

Cc1c(O)cccc1C(=O)N[C@@H](CSc1ccccc1)[C@H](O)CN1C[C@H]2CCCC[C@H]2C[C@H]1C(=O)NC(C)(C)C [[…]]
CC50 (in vitro): > 33 µM

Nc1nc2nn[nH]c2c(=O)[nH]1 [8-Azaguanine]
SI (CC50/IC50) (SARS-CoV-2 [1]): 2.79 | CC50 (in vitro): 10.4 µM | IC50 (SARS-CoV-2 [3]; [8]): 3.72 µM

Nc1cc2c3ccccc3ccc2c2ccccc12 [6-amino-chrysene]
SI (CC50/IC50) (SARS-CoV-2 [1]; [7]): 2.84 | CC50 (in vitro): > 33 µM | IC50 (SARS-CoV-2 [3]; [8]): 11.6 µM

CCN1CCN(Cc2ccc(-c3cc4c(N[C@H](C)c5ccccc5)ncnc4[nH]3)cc2)CC1 [AEE788]
SI (CC50/IC50) (SARS-CoV-2 [1]; [7]): 8.38 | IC50 (SARS-CoV-2 [3]; [8]): 3.94 µM | CC50 at 4 days [2]: > 33 µM

CCN(CC)Cc1cc(Nc2ccnc3cc(Cl)ccc23)ccc1O [Amodiaquine]
SI (CC50/IC50) (SARS-CoV-2 [1]): 4.12 | IC50 (SARS-CoV-2 [3]; [8]): 4.07 µM | CC50 at 4 days [2]: 16.8 µM

Rhodamine-123
IC50 (SARS-CoV-2 [1]): 0.8 µM | SI (CC50/IC50) (SARS-CoV-2 [1]; [7]): 41.25
